Data taken from US11229680B2, “Autophagy inhibitors” (The Hong Kong University of Science and Technology, priority 2017, dated 2022).
“And” between values parts separate entries of the source, which are not always exact repeats. Equal values may be shown once.

Key:
GABARAP = experiment: ITC binding to GABARAP; parameters: species or system human
[1] = system: LC3s (LC3A, LC3B, LC3C) (Homo sapiens); experiment: ITC binding to LC3s
LC3s (LC3A, LC3B, LC3C) [2] = experiment: ITC binding to LC3s; parameters: species or system human; settings: LC3A, LC3B, LC3C
LGG-1 = LGG-1 (Caenorhabditis elegans, UniProt Q09490); experiment: ITC binding to purified LGG-1; parameters: species or system C. elegans
Sequence of LGG-1 (Q09490 1-116 limits assumed): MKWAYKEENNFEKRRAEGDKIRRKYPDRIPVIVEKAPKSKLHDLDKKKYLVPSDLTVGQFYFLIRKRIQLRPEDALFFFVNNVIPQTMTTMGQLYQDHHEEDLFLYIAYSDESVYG
Excerpt: (§1) C. elegans provides an ideal platform to study autophagy and especially to investigate roles of different members of Atg8 in autophagy, because worms contain both GABARAP and LC3 subfamily Atg8s and yet simple enough with one gene for each subfamily (worm lgg-1 and lgg-2 are […] of GABARAP and LC3, respectively). It has also been shown earlier on that lgg-1 and lgg-2 act non-redundantly in autophagy (Wu et al., 2015). Prior to performing autophagy assays in worms, we measured the bindings of various AnkB/G LIR peptides to purified LGG-1 and LGG-2 using the same method as we have described for FIGS. 1&3.

LGG-2 = biological target: T1, LGG-2 (Caenorhabditis elegans, UniProt Q23536); experiment: ITC binding to purified LGG-2; parameters: species or system C. elegans
T1 sequence (Q23536 1-130): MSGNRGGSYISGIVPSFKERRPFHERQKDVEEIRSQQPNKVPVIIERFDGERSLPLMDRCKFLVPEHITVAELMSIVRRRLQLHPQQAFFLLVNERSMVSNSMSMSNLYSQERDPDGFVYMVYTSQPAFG
Excerpt: as §1

[3] = system: LC3-positive puncta in COS7 cells; experiment: LC3-positive puncta in starved COS7 cells; type: cell-based; settings: COS7 cells over-expressing mCherry-tagged peptide, nutrients deprivation
Excerpt: (§2) We used the well-established cultured COS7 cells for assessing autophagy inhibitions by the AnkB/G LIR peptides over-expressed in the cells. We quantified the numbers of endogenous LC3- or GABARAP-positive puncta, which represent LC3 or GABARAP-containing autophagic structures, as readouts to quantify autophagy inhibitions (Klionsky et al., 2016; Mizushima et al., 2010). After nutrients deprivation, obvious accumulations of LC3- or GABARAP-positive puncta could be observed in cells over-expressing mCherry only, indicating induction of autophagy by starvation (FIG. 6C6&E6). […] In contrast, expression of the mCherry-AnkB WR peptide had no impact on the LC3- or GABARAP-puncta numbers (i.e. with the same puncta numbers as expressing the mCherry vector control; FIG. 6C-F).

[4] = system: GABARAP-positive puncta in COS7 cells; experiment: GABARAP-positive puncta in starved COS7 cells; type: cell-based; settings: COS7 cells over-expressing mCherry-tagged peptide, nutrients deprivation
Excerpt: as §2

[5] = system: p62-positive puncta in COS7 cells; experiment: p62-positive puncta in starved COS7 cells; type: cell-based; settings: starvation; for p62-positive puncta versus mCherry vector control: COS7 cells expressing mCherry-tagged peptide
Excerpt: We further quantified the level of p62, one of the best studied selective autophagy substrates, to monitor the autophagic flux in COS7 cells expressing various AnkB/G LIR peptides under the starvation condition (Klionsky et al., 2016; Mizushima et al., 2010). Upon autophagy induction, p62 forms aggregates via its LIR motif-mediated interactions to Atg8s and subsequent incorporation into autophagosomes (Bjorkoy et al., 2005; Pankiv et al., 2007). Only a relatively low and steady level of p62 aggregates is formed if autophagy flux is normal (i.e. p62-positive autophagosomes are steadily cleared by fusing with lysosomes; (Bjorkoy et al., 2005)), and this is indeed the case when cells were expressed with the mCherry vector control (FIG. 7F). […] This is consistent with a previous siRNA-based study showing that knockdown of LC3 but not GABARAP causes p62 accumulation in COS7 cells (Maruyama et al., 2014). Taken together, the above cell-based assays reinforce our earlier conclusion derived from biochemical and structural studies, that the AnkB WT peptide can function as potent autophagy inhibitor by targeting all members of the Atg8 family and the AnkG WT or ER peptides can selectively target the GABARAPs and spare the LC3s.

SQST-1::GFP = SQST-1::GFP aggregate accumulation in C. elegans expressing the peptides; type: in vivo
Excerpt: We next determined whether the AnkB WT peptide blocks autophagy in C. elegans. Autophagy is required for degradation of a variety of protein substrates, including the C. elegans p62 homolog SQST-1 during development (Tian et al., 2010). In the wild type animals, SQST-1::GFP is weakly expressed and diffusely localized in the cytoplasm, while numerous SQST-1 aggregates accumulate in autophagy mutants (Tian et al., 2010). The AnkB WT peptide fused with the Cherry reporter (Cherry::AnkB WT) or Cherry::AnkB WR was expressed under the control of the nfya-1 promoter, which is expressed ubiquitously from the embryonic to adult stages. The expression plasmids were injected into animals carrying integrated SQST-1::GFP reporter (bpIs151) and transgenic lines were obtained and analyzed.
Similarly, we also tested the blocking effect of AnkG peptides in C. elegans. […] This observation is somewhat different from that in mammalian heterologous cells. This may be explained by the different roles of the two families in different organisms. In mammal, p62 degradation is dependent on LC3 but not GABARAP (Maruyama et al., 2014), so blocking GABARAP binding has minimal effect on p62 degradation. However, in C. elegans, LGG-1 acts upstream to LGG-2 (Manil-Segalen et al., 2014; Wu et al., 2015), so blocking either of them will lead to defect in SQST-1 degradation.
Although a large collection of autophagy mutants were isolated from genetic screens (Tian et al., 2010), assays to inhibit autophagy activity in a spatiotemporal manner are not available. We investigated whether the AnkB peptide can block autophagy in a tissue- and temporal-specific manner. The AnkB peptide was expressed under the control of tissue-specific promoters, including the promoter of myo-3 for body wall muscle cells, y37A1B.5 for hypodermal cells and vha-6 for intestinal cells. The expression constructs were injected into animals carrying the corresponding tissue-specific SQST-1::GFP expression integrated lines.
We also examined whether the AnkB peptide can impair autophagy in a temporal control manner. The expression of AnkB WT was driven by the promoter of col-19, which is expressed in hypodermal cells from the young adult stage onwards.

[6] = system: all members of the Atg8 family; experiment: ITC binding to all members of the Atg8 family; parameters: species or system human
Excerpt: The 440 kD AnkB and 480 kD AnkG both contain a giant exon encoding several thousand amino acid residues, though the homology between the two giant exon coding sequences is very limited. The 440 kD AnkB is also a neuronal specific isoform, and is mainly expressed in unmyelinated/premyelinated axons.
Thus, we will not describe the overall structures of the two complexes any further, except to note that the AnkB LIR also contains a well-defined C-helix extension following the LIR core motif.

C. elegans [7] = experiment: C. elegans hatching and development; type: in vivo; settings: Pnfya-1::Cherry fusion
Excerpt: Autophagy plays critical roles in various physiological processes occurring during development or in adult C. elegans (Zhang et al., 2015). Fewer autophagy mutants develop into larvae. […] 60.8% embryos expressing the AnkB WT peptide hatched, compared to 96.9% of embryos expressing AnkB WR (FIG. 8G). Autophagy mutants also grow slowly. […] Thus, the AnkB WT peptide blocks autophagy during C. elegans development.

C. elegans [8] = experiment: C. elegans life span; type: in vivo
Excerpt: Autophagy is known to regulate the adult worm aging process. […] The autophagy defect caused by AnkB was weaker than that in autophagy mutants.

[9] = system: GFP-RFP-LC3B puncta in COS7 cells; experiment: Autophagosome marker co-localization in COS7 cells co-transfected with GFP-RFP-LC3B; type: cell-based; settings: Myc tagged peptide, low expression level
Excerpt: We next tried to explore the potential applications of the Ank-derived peptides as autophagosome markers. The COS7 cells were co-transfected with GFP-RFP-LC3B and Myc tagged AnkB WT or AnkB WR peptides. […] LC3B are mainly localized on the autophagosome as vast majority of the puncta are both green and red (FIG. 11A).

LC3s (LC3A, LC3B, LC3C) [10] = settings: recently identified LC3 binding sequence (Cheng et al., 2016; Olsvik et al., 2015); cited from earlier work

CC[C@H](C)[C@H](NC(=O)[C@H](CCC(=O)O)NC(=O)[C@H](CCC(=O)O)NC(=O)[C@H](CO)NC(=O)[C@H](CO)NC(=O)[C@H](Cc1ccccc1)NC(=O)[C@H](CCC(=O)O)NC(=O)[C@@H](NC(=O)[C@H](Cc1c[nH]c2ccccc12)NC(=O)[C@H](CC(=O)O)NC(=O)[C@H](CC(=O)O)NC(=O)[C@H](CCC(=O)O)NC(=O)[C@@H]1CCCN1)[C@@H](C)O)C(=O)N[C@@H](CCCNC(=N)N)C(=O)N[C@@H](CCC(=O)O)C(=O)N[C@@H](C)C(=O)N[C@@H](CCCNC(=N)N)C(=O)N[C@@H](CCC(N)=O)C(=O)N[C@@H](C)C(=O)N[C@@H](C)C(=O)N[C@@H](C)C(=O)N[C@@H](CO)C(=O)N[C@@H](Cc1c[nH]cn1)C(=O)N[C@@H](C)C(=O)N1CCC[C@H]1C(=O)N[C@@H](CO)C(=O)O [AnkG LIR]
binding to GABARAP stronger than almost all reported bindings between LIR motifs and Atg8s (GABARAP; ITC): ~1000 fold
Kd (GABARAP; isothermal titration calorimetry (ITC)): ~2.6 nM and 2.6 nM
binding to LC3 (in words) [1]: much weaker affinity than to GABARAPs
Kd values of binding to the LC3s (LC3s (LC3A, LC3B, LC3C) [2]): hundreds to thousands
binding to LGG-1 (in words) (LGG-1): binds strongly
weaker affinity towards LGG-2 than LGG-1 (LGG-2): about 130 fold
LC3-positive puncta number [3]: only modestly reduced
GABARAP-positive puncta number [4]: potently inhibited
p62-positive puncta versus mCherry vector control [5]: obviously increased
p62 puncta increase compared with AnkB WT peptide ([5]; COS7 cells): significantly lower
SQST-1::GFP aggregates (SQST-1::GFP; Cherry fusion, hyp7 promoter, epidermis, embryonic to adult stages): caused accumulation of SQST-1::GFP aggregates
SQST-1::GFP aggregates (SQST-1::GFP; Phyp7::mCherry::AnkG peptides, hypodermis, L4 larvae): a large number of SQST-1::GFP aggregates accumulate
SQST-1::GFP aggregates (SQST-1::GFP; mCherry::AnkG peptides, embryonic stage (FIG. 10B-D)): accumulation of the SQST-1::GFP aggregates

AnkB W1592R: AnkB LIR with Trp1592 substituted by Arg; control for functional studies (VEEERVIVSDEEIEEARQKAPLEITEY; AnkB W1592R human recombinant peptide, prepared in the lab)
binding to Atg8 family members (in words) [6]: dramatically decreased
binding to LGG-1 (in words) (LGG-1): eliminated the bindings
binding to LGG-2 (in words) (LGG-2; purified LGG-2): eliminated the bindings
LC3-positive puncta number [3]: no impact
GABARAP-positive puncta number [4]: no impact
p62-positive puncta versus mCherry vector control [5]: neither of the AnkB/G WR peptides could induce p62-positive puncta increase
SQST-1::GFP aggregates (SQST-1::GFP; Cherry fusion, FIG. 8, embryo): no SQST-1::GFP aggregates
SQST-1::GFP aggregates (SQST-1::GFP; Cherry fusion, FIG. 8, larvae): no SQST-1::GFP aggregates
SQST-1::GFP aggregates (SQST-1::GFP; Cherry fusion, nfya-1 promoter (ubiquitous), multiple tissues, embryonic to adult stages): no SQST-1::GFP aggregates were formed
SQST-1::GFP aggregates (SQST-1::GFP; mCherry fusion, hypodermal cells, embryo (FIG. 9)): no SQST-1::GFP aggregates
SQST-1::GFP aggregates (SQST-1::GFP; mCherry fusion, hypodermis, L4 larvae (FIG. 9)): no SQST-1::GFP aggregates
SQST-1::GFP aggregates (SQST-1::GFP; myo-3 promoter, muscle cells, L4 larvae): no SQST-1::GFP aggregates
SQST-1::GFP aggregates (SQST-1::GFP; myo-3 promoter, muscle, embryo): no SQST-1::GFP
SQST-1::GFP aggregates (SQST-1::GFP; tissue-specific promoters myo-3, y37A1B.5, vha-6, embryonic to adult stages): no accumulation
SQST-1::GFP aggregates (SQST-1::GFP; vha-6 promoter, intestine cells, embryo): no SQST-1::GFP aggregates
SQST-1::GFP aggregates (SQST-1::GFP; vha-6 promoter, intestine cells, larvae (FIG. 10S, 10T)): no SQST-1::GFP aggregates
embryos hatched (hatch rate) (C. elegans [7]): 96.9%
Median lifespan (C. elegans [8]; Pmyo-3::ch:: fusion (muscle)): 18.72 days
Median lifespan (C. elegans [8]; Pnfya-1::ch:: fusion (ubiquitous)): 19.15 days
Median lifespan (C. elegans [8]; Pvha-6::ch:: fusion (intestine)): 18.13 days
Median lifespan (C. elegans [8]; Py37a1b.5::ch:: fusion (hypodermal cells)): 18.63 days
localization relative to GFP-RFP-LC3B dual-color (autophagosome) puncta [9]: diffused in the cells

FYCO1 LIR: recently identified LC3 binding sequence from FYCO1 with a one-turn helix extension (DDAVFDIITDEELCQIQESGSSLPET; FYCO1 recombinant human sequence, prepared in lab)
binding to LC3 compared with bindings of AnkB LIR to Atg8 (LC3s (LC3A, LC3B, LC3C) [10]): significantly weaker
